# Like-named read-outs stand apart in the source and are kept apart here.
# Experiments:
# bananas [1] = assay: Time of protection of bananas against ethylene; type: in vivo, Musa paradisiaca L
# Protocol: Untreated mature green bananas (Musa paradisiaca L) from Costa Rica which were ready for market were obtained from the local Farmers Market and were kept at 14.5° C. until use. Bananas were used within 24 hours of arrival. Experiments were conducted at approximately 22-23° C. No damaged fruit were used in the experiments. Bananas were treated to an amount of compound believed to saturate the receptor sites (10 times the minimum amount for protection). The bananas were exposed for 24 hours then vented. They were kept on a laboratory bench and each day a sample was exposed to ethylene. The day the bananas were treated with ethylene and the day the bananas turned yellow and became soft were recorded. Generally, this observation occurred about 3 days after the ethylene treatment day. The treatment day the bananas first ripened was considered to be the time of protection.
# bananas [2] = assay: Minimum amount of cyclopropene as a gas required to protect bananas from ethylene; type: in vivo, Musa paradisiaca L; details: for minimum concentration required for protection of bananas: 24 hour exposure, compound as a gas; for Minimum Concentration: amount of compound as a gas that would protect bananas by a 24 hour exposure; for minimum protection value: as a gas, restated with FIG. 3
# Protocol: Untreated mature green bananas (Musa paradisiaca L) from Costa Rica which were ready for market were obtained from the local Farmers Market and were kept at 14.5° C. until use. Bananas were used within 24 hours of arrival. Experiments were conducted at approximately 22-23° C. No damaged fruit were used in the experiments. […] The jars were then vented and ethylene was injected and allowed to stand for a minimum of 15 hours and then allowed to stand at 23° C. until ethylene responses developed. For gaseous phase treatment, the compound is applied to bananas by pipetting solution onto filter paper. Filter paper is used to increase surface area in a 3 L jar. The jar is sealed for 24 hours to give enough time to diffuse through plant tissue to the ethylene binding sites. 333 ul/L of ethylene gas is added to the jars. The jars are then resealed for 15 hours. This allows for maximal exposure to ethylene to measure effectiveness of the compounds. Firmness was recorded over a number of days. Disappearance of chlorophyll was determined by extracting chlorophyll from banana peels. Absorbance was measured in a spectrometer. The minimum amount of cyclopropene necessary to protect bananas from ethylene was determined after the bananas had been exposed to the compound for 24 hours. Following this time, the fruits were vented for 10 minutes and then exposed to 333 ? l^-I of ethylene gas treatment. This has been the procedure for most other studies involving cyclopropene compounds and bananas. This time was used so that a reasonable comparison could be made with previous work ([…]. et al. 1996 a; 1996b; 1999; 2001; 2003). (See […]., et al., Effect of 1-methylcyclopropene, and methylenecyclopropene on ethylene binding and ethylene action in cut carnations, Plant Growth Reg., 18, 79-86, (1996a); […]., et al., The effect of chemical structure on the antagonism by cyclopropenes of ethylene responses in banana, Plant Growth Reg., 33, 107-110 (2001); […]., et al., 1-Substituted cyclopropenes: Effective blocking agents for ethylene action in plants, Plant Growth Reg. 40, 221-228 (2003)).
# [3] = cited from earlier work
# banana peel = assay: Protection of chlorophyll in banana peel by compound applied as salt (swab) or gas, then ethylene; type: in vivo, Musa paradisiaca L; details: for difference between the highest and lowest chlorophyll value of the concentration series: FIG. 3, acetate salts, series 1 to 2.5 times starting at 3 times the gas minimum, 24 hour exposure; for chlorophyll level in banana peels against concentration: FIG. 6A, treated using acetic acid
# Protocol: Untreated mature green bananas (Musa paradisiaca L) from Costa Rica which were ready for market were obtained from the local Farmers Market and were kept at 14.5° C. until use. Bananas were used within 24 hours of arrival. Experiments were conducted at approximately 22-23° C. No damaged fruit were used in the experiments. […] The jars were then vented and ethylene was injected and allowed to stand for a minimum of 15 hours and then allowed to stand at 23° C. until ethylene responses developed. When the effect of the respective salts of the cyclopropenes were assayed, the salt was mixed with the desired amount of water containing Tween 20 as a wetting agent and the acid. Usually 200 μl of water, 20 μl of Tween 20 and 100 μl of 0.1 M acid and the compound dissolved in ether were used. These salts were applied to the banana. The peels were swabbed to spread the mixture and increase the exposed surface area. The bananas were placed in an unsealed 3-liter jar and allowed to stand 24 hours. In the case of the carbonate salt, the compound was exposed to carbon dioxide in water long enough for the salt to form. In this case, the carbonate salt was formed by mixing the compound dissolved in water with CO2. The concentration of CO2 in water at 1 atmosphere and 25° C. is reported to be 0.0338 M (Daniels and Alberty 1955) (See Daniels, F, et al., Physical Chemistry, John Wiley and Sons New York, 200 (1955). […] (See Cotton, et al., Advanced Inorganic Chemistry John Wiley and Sons. New York, 152 (1999). At the end of 24 hours, ethylene was injected and the jars were sealed. After 15 hours exposure, the bananas were removed and observed for several days for the effect of ethylene. An untreated check banana and a similar untreated banana treated with ethylene only were included in each experiment for comparison. For gaseous phase treatment, the compound is applied to bananas by pipetting solution onto filter paper. Filter paper is used to increase surface area in a 3 L jar. The jar is sealed for 24 hours to give enough time to diffuse through plant tissue to the ethylene binding sites. 333 ul/L of ethylene gas is added to the jars. The jars are then resealed for 15 hours. This allows for maximal exposure to ethylene to measure effectiveness of the compounds. Firmness was recorded over a number of days. Disappearance of chlorophyll was determined by extracting chlorophyll from banana peels. Absorbance was measured in a spectrometer. For aqueous phase (salts) treatment, compounds were alternatively tested by mixing the solutions in acid and a detergent. The detergent, Tween 20, was used as a wetting agent. Solutions were then applied at various concentrations to the banana with a cotton swab. Bananas were then sealed in a jar and treated in the same manner as with the gas compound procedures described above. Chlorophyll was determined by the method of Arnon (Arnon, D I (1949) Copper content in isolated chloroplasts. Polyphenoloxidase in Beta vulgaris. Plant Physiology 24:1-15) or by using a reflective chlorophyll meter (Field Scout CM 1000 Spectronic Technologies Inc.). To extract chlorophyll, a measured area of peel was cut from representative areas of the peel and placed in boiling water for 3 minutes. The samples were then removed and blended with acetone. After standing overnight in the dark, they were filtered then concentrated in a hood and chlorophyll determined by the method of Arnon (1949) according to the procedures outlined by Holden (1965). Banana peel samples were cut and mixed with acetone to extract chlorophyll. Samples were made in an ether solution and absorbance measured at 663 nm.
# bananas [4] = assay: Stability of the compound after 1 hour incubation with acids or salts at different pH, read by banana chlorophyll; type: physicochemical, Musa paradisiaca L; details: for Chlorophyll (% of control): readings at 7 days
# Protocol: Chlorophyll was determined by the method of Arnon (Arnon, D I (1949) Copper content in isolated chloroplasts. Polyphenoloxidase in Beta vulgaris. Plant Physiology 24:1-15) or by using a reflective chlorophyll meter (Field Scout CM 1000 Spectronic Technologies Inc.). To extract chlorophyll, a measured area of peel was cut from representative areas of the peel and placed in boiling water for 3 minutes. The samples were then removed and blended with acetone. After standing overnight in the dark, they were filtered then concentrated in a hood and chlorophyll determined by the method of Arnon (1949) according to the procedures outlined by Holden (1965).
# However, these compounds are thought to be unstable under very acidic conditions. Liao et al. in some synthetic procedures lower the pH to 1-3.
# Petunia hybridia = assay: Protection of petunia flowers against ethylene; type: in vivo; details: 100 nl, gas or carbonate salt form, ethylene 24 hours, at 5 days, FIG. 8
# Protocol: FIG. 8. Protection of flowers (Petunia hybridia) by N,N-dipropyl(1-cyclopropenylmethyl)amine (100 nl) as a gas or as the carbonate salt. Treatment included check (control), ethylene, gas form, salt form of N,N-dipropyl(1-cyclopropenylmethyl)amine, from left to right. All except check were subjected to ethylene for 24 hours.
# In experiments to study effects of the compounds described herein on the ethylene response in flowering plants, the petunia (Petunia hybridia), a well known ethylene sensitive flower, and the dandelion (Krigia dandelion) were used in the experiments.
# FIGS. 7 and 8 present the results of using 100 nl N,N-dipropyl(1-cyclopropenylmethyl)amine on dandelions and petunias, respectively. The Krigia dandelion is commonly known as a weed that can be found along roads during particular times of the year such as spring and summer. It is of interest because ethylene can cause the plant to become dormant and, as a defense mechanism, the plant can become dormant when there is drought. […] The petunia is a well-known ethylene sensitive flower.
# [5] = 24 hour exposure at 10 times the minimum amount, daily ethylene challenge
molecule,measurement,setting,value
C1=C(CNCC2=CC2)C1,protection time,bananas [1],33 days
same,protection time,bananas [1]; [5],33 days
same,minimum concentration required for protection of bananas,bananas [2],5.3 nl l^−I
same,Minimum Concentration,bananas [2],5.7 nl/l
"O=C=O [CO2, carbon dioxide]",concentration in water,[3]; 1 atmosphere and 25° C. (Daniels and Alberty 1955),0.0338 M
"CCCCN(CCCC)CC1=CC1 [N,N--Dibutyl (1-Cyclopropenylmethyl)amine]",protection time,bananas [1],33 days
same,protection time,bananas [1]; [5],33 days
same,rapidity of receptor inactivation relative to the dimethyl compound,"banana peel; FIG. 3, 24 hour exposure",1.55 ×
same,difference between the highest and lowest chlorophyll value of the concentration series,banana peel,48 % of the control
same,protection of bananas compared with the dimethyl compound,"banana peel; FIG. 5, aqueous phase, swabbed onto the top half, four days after exposure to ethylene gas",less protection
same,chlorophyll level in banana peels against concentration,banana peel,ascending concentrations to have increasing levels of chlorophyll
same,minimum concentration required for protection of bananas,bananas [2],184 nl l^−I
same,Minimum Concentration,bananas [2],184 nl/l
same,minimum protection value,bananas [2],184 nl l^−1
same,Chlorophyll (% of control),"bananas [4]; Gas control, bananas exposed as a gas 24 hours then ethylene 15 hours",100 % of control
same,inactivation by acids or salts,"bananas [4]; different pH values down to pH 1.5 for 1 hour, re-isolated and used in the usual treatments",little or no inactivation occurred
same,Chlorophyll (% of control),"bananas [4]; incubated 1 hour in H2O, neutralized, ether extract applied as a gas 24 hours, ethylene 15 hours",98 % of control
same,Chlorophyll (% of control),"bananas [4]; incubated 1 hour in phosphoric acid (.1M, pH 1.5)",98 % of control
same,Chlorophyll (% of control),"bananas [4]; incubated 1 hour in sodium acetate (0.1M, pH 4.75)",100 % of control
same,Chlorophyll (% of control),"bananas [4]; incubated 1 hour in sodium formate (0.1M, pH 3.0)",100 % of control
"CCN(CC)CC1=CC1 [N,N--Diethyl (1-Cyclopropenylmethyl)amine]",protection time,bananas [1],32 days
same,protection time,bananas [1]; [5],32 days
same,minimum concentration required for protection of bananas,bananas [2],59 nl l^−I
same,Minimum Concentration,bananas [2],59 nl/l
"CN(C)CC1=CC1 [N,N--Dimethyl (1-Cyclopropenylmethyl)amine]",protection time,bananas [1],34 days
same,protection time,bananas [1]; [5],34 days
same,difference between the highest and lowest chlorophyll value of the concentration series,banana peel,30.9 % of the control
same,chlorophyll level in banana peels against concentration,banana peel,ascending concentrations to have increasingly higher chlorophyll levels
same,minimum concentration required for protection of bananas,bananas [2],73 nl l^−I
same,Minimum Concentration,bananas [2],73 nl/l
same,minimum protection value,bananas [2],73 nl l^−1
"CCCN(CCC)CC1=CC1 [N,N--Dipropyl (1-Cyclopropenylmethyl)amine]",protection time,bananas [1],33 days
same,protection time,bananas [1]; [5],33 days
same,ethylene response of bananas after gas exposure,"banana peel; FIG. 4, gaseous phase, 10 and 15 μL, after seven days",had already begun showing an ethylene response
same,Chlorophyll (% of control),"banana peel; acetic acid + 50 μl, 24 hours, ethylene (300 μl/l) 15 hours, 5 days after ethylene",43 % of Control
same,Chlorophyll (% of control),"banana peel; acetic acid + 200 μl, 24 hours, ethylene (300 μl/l) 15 hours, 5 days after ethylene",46 % of Control
same,Chlorophyll (% of control),"banana peel; applied as gas, ethylene 15 hours, readings at 5 days",100 % of control
same,effectiveness of the carbonate salt compared with other acids,"banana peel; banana peel, Table 4",as effective as the other acids
same,Chlorophyll (% of control),"banana peel; carbonic + 50 μl, 24 hours, ethylene (300 μl/l) 15 hours, 5 days after ethylene",47 % of Control
same,Chlorophyll (% of control),"banana peel; carbonic acid + 200 μl, 24 hours, ethylene (300 μl/l) 15 hours, 5 days after ethylene",48 % of Control
same,Chlorophyll (% of control),"banana peel; salt with 0.1 M acetic acid buffer (pH 4.75), swab to ½ banana, 24 hours, ethylene 15 hours, readings at 5 days",33 % of control
same,Chlorophyll (% of control),"banana peel; salt with 0.1 M acetic acid, swab to ½ banana, 24 hours, ethylene 15 hours, readings at 5 days",31 % of control
same,Chlorophyll (% of control),"banana peel; salt with 0.1 M formic acid, swab to ½ banana, 24 hours, ethylene 15 hours, readings at 5 days",30 % of control
same,Chlorophyll (% of control),"banana peel; salt with phosphoric acid (pH 1.5), swab to ½ banana, 24 hours, ethylene 15 hours, readings at 5 days",30 % of control
same,minimum concentration required for protection of bananas,bananas [2],30 nl l^−I
same,Minimum Concentration,bananas [2],30 nl/l
same,effect on petunia flowers exposed to ethylene,Petunia hybridia,appears to withstand the ethylene response
O=C(O)O [carbonic acid],pKa,[3]; corrected for the equilibrium (Cotton et al. 1999),3.58
same,pKa,[3]; usually published value,6.38
N-(1-methylcyclopropene)-aniline,protection time,bananas [1],32 days
same,protection time,bananas [1]; [5],32 days
same,minimum concentration required for protection of bananas,bananas [2],248 nl l^−I
same,Minimum Concentration,bananas [2],248 nl/l

# Reference: patent US8093430B2, “Methods of inhibiting ethylene responses in plants using cyclopropene amine compounds” (North Carolina State University, priority 2007, dated 2012)
